In article PMC2782746 (Bioorganic & medicinal chemistry, 2008):
“Also recorded” adds a separate entry of the source.

Key:
[1] = target: T1, G. gallus AIR carboxylase (Gallus gallus, UniProt P38024); settings: cited from earlier work
T1 sequence (P38024 1-426): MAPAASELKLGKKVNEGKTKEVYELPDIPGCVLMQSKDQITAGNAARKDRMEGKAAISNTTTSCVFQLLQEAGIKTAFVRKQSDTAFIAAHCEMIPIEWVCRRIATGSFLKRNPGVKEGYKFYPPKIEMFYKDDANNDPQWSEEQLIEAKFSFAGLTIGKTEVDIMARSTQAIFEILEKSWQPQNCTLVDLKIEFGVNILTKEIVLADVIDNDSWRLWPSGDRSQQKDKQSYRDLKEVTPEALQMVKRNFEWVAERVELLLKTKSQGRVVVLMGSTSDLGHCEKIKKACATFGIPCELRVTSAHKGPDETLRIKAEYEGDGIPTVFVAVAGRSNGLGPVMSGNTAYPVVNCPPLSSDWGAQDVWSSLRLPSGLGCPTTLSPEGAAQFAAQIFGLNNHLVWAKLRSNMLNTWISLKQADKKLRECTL

[2] = tested on: N^5-CAIR mutase; settings: fungal and bacterial N^5-CAIR mutase; cited from earlier work
[3] = target: T1, G. gallus AIR carboxylase; assay: Inhibition of AIR carboxylase, CAIR decarboxylation assay; format: biochemical, G. gallus (chicken)
[4] = target: T1, G. gallus AIR carboxylase; assay: Test as alternative substrates for AIR carboxylase; format: biochemical; settings: UV and HPLC analysis

Structure (SMILES): Nc1c([N+](=O)[O-])ncn1[C@@H]1O[C@H](COP(=O)(O)O)[C@@H](O)[C@H]1O [Compound 3, 4-nitro-5-aminoimidazole ribonucleotide]
- fold tighter affinity for the enzyme than CAIR ([1]; compared with CAIR): 10,000 fold
- type of inhibition / kinetics ([1]; listed as NAIR): slow, tight binding inhibitor; also recorded: slow, tight-binding kinetics
- type of inhibition [2]: steady-state competitive inhibitor

Structure (SMILES): Nc1c(C(=O)O)cnn1[C@@H]1O[C@H](COP(=O)(O)O)[C@@H](O)[C@H]1O [Compound 8, 5-Amino-1-(β-D-ribofuranosyl)pyrazole-4-carboxylate 5′-phosphate]
- fold difference in binding affinity, CAIR into CAPzR ([3]; compared to CAIR): 3 fold
- binding affinity relative to CAIR ([3]; in words): greater affinity than CAIR

Structure (SMILES): Nc1c(C(=O)O)nnn1[C@@H]1O[C@H](COP(=O)(O)O)[C@@H](O)[C@H]1O [Compound 10, 5-Amino-1-(β-D-ribofuranosyl)-1,2,3-triazole-4-carboxylate 5′-phosphate]
- alternative substrate for the enzyme [4]: neither compound is an alternative substrate
